Measurements published in ChEMBL document CHEMBL4610052, “Application of tandem biotransformation for biosynthesis of new pentacyclic triterpenoid derivatives with neuroprotective effect” (Bioorg Med Chem Lett, 2020).

Tested on: PC-12
Experiment: Neuroprotective activity against CoCl2-induced neuronal injury in rat PC12 cells
Assay type: functional, cell-based

Row | SMILES | EC50
1 | CC1(C)[C@@H](O)CC[C@]2(C)[C@H]3C(=O)C=C4[C@@H]5C[C@@](C)(C(=O)O[C@@H]6O[C@H](CO)[C@@H](O)[C@H](O)[C@H]6O)CC[C@]5(C)CC[C@@]4(C)[C@]3(C)[C@@H](O)C[C@@H]12 | > 40 µM
2 | CC1(C)[C@@H](O)CC[C@]2(C)[C@H]3CC=C4[C@@H]5C[C@](C)(C(=O)O)[C@@H](O)C[C@]5(C(=O)O)CC[C@@]4(C)[C@]3(C)[C@@H](O)C[C@@H]12 | 0.48 µM
3 | CC1(C)[C@@H](O)CC[C@]2(C)[C@H]3C(=O)C=C4[C@@H]5C[C@@](C)(C(=O)O[C@@H]6O[C@H](CO)[C@@H](O)[C@H](O)[C@H]6O)CC[C@]5(C)CC[C@@]4(C)[C@]3(C)CC[C@@H]12 | > 40 µM
4 | CC1(C)C[C@H]2C3=CC[C@@H]4[C@@]5(C)CC[C@H](O[C@H]6O[C@@H](CO)[C@H](O)[C@@H](O)[C@@H]6O)C(C)(C)[C@@H]5C[C@H](O)[C@@]4(C)[C@]3(C)CC[C@@]2(C(=O)O)C[C@@H]1O | > 40 µM
5 | CC1(C)[C@@H](O)CC[C@]2(C)[C@H]3C(=O)C=C4[C@@H]5C[C@@](C)(C(=O)O)CC[C@]5(C)CC[C@@]4(C)[C@]3(C)[C@@H](O)C[C@@H]12 | 1.76 µM
6 | CC1(C)[C@@H](O)CC[C@]2(C)[C@H]3CC=C4[C@@H]5C[C@](C)(CO)[C@@H](O)C[C@]5(C(=O)O)CC[C@@]4(C)[C@]3(C)[C@@H](O)C[C@@H]12 | 7.74 µM
7 | CC1(C)C[C@H]2C3=CC[C@@H]4[C@@]5(C)CC[C@H](O)C(C)(C)[C@@H]5C[C@H](O)[C@@]4(C)[C@]3(C)CC[C@@]2(C(=O)O)C[C@@H]1O | > 40 µM
8 | CC1(C)[C@@H](O)CC[C@]2(C)[C@H]3C(=O)C=C4[C@@H]5C[C@@](C)(C(=O)O)CC[C@]5(C)CC[C@@]4(C)[C@]3(C)CC[C@@H]12 [ENOXOLONE] | 0.89 µM
9 | CC1(C)CC[C@]2(C(=O)O)CC[C@]3(C)C(=CC[C@@H]4[C@@]5(C)CC[C@H](O)C(C)(C)[C@@H]5CC[C@]43C)[C@@H]2C1 [OLEANOLIC_ACID] | 8.55 µM
10 | OC[C@H]1O[C@@H](OCCc2ccc(O)cc2)[C@H](O)[C@@H](O)[C@@H]1O [SALIDROSIDE] | 0.21 µM
